Laboratory results published in PMC6254361, “The properties of Msh2–Msh6 ATP binding mutants suggest a signal amplification mechanism in DNA mismatch repair” (The Journal of Biological Chemistry, 2018).

Molecular target: T1, Msh2–Msh6 (Saccharomyces cerevisiae, UniProt P25847+Q03834, Q03834:K988R)
T1 sequence (P25847 1-964): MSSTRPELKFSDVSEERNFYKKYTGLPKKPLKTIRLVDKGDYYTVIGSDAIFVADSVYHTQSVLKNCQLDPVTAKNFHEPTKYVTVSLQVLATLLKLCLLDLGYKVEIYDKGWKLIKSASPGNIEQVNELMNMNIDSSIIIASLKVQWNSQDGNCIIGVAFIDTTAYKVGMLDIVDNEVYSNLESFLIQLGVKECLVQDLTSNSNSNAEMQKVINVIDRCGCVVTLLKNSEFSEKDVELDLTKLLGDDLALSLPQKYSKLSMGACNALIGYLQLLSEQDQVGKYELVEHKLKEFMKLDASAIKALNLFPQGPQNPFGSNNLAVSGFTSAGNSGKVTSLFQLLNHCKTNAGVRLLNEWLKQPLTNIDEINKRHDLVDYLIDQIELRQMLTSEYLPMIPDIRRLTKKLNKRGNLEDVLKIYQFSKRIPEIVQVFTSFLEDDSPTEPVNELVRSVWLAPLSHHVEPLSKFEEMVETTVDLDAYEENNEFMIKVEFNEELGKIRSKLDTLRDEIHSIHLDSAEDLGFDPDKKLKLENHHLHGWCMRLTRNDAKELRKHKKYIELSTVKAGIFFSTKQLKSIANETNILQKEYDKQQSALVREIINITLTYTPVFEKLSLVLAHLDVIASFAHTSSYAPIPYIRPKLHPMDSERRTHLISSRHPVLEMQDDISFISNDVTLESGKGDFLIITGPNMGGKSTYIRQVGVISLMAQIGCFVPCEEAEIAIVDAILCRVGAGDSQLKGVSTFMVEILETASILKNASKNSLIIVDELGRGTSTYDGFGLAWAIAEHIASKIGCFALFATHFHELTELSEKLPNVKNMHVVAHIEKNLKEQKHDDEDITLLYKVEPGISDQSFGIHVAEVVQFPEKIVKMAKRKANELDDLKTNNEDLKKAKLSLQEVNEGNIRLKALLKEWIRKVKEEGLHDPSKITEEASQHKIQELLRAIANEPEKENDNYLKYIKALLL
T1 sequence (Q03834 1-1242 K988R): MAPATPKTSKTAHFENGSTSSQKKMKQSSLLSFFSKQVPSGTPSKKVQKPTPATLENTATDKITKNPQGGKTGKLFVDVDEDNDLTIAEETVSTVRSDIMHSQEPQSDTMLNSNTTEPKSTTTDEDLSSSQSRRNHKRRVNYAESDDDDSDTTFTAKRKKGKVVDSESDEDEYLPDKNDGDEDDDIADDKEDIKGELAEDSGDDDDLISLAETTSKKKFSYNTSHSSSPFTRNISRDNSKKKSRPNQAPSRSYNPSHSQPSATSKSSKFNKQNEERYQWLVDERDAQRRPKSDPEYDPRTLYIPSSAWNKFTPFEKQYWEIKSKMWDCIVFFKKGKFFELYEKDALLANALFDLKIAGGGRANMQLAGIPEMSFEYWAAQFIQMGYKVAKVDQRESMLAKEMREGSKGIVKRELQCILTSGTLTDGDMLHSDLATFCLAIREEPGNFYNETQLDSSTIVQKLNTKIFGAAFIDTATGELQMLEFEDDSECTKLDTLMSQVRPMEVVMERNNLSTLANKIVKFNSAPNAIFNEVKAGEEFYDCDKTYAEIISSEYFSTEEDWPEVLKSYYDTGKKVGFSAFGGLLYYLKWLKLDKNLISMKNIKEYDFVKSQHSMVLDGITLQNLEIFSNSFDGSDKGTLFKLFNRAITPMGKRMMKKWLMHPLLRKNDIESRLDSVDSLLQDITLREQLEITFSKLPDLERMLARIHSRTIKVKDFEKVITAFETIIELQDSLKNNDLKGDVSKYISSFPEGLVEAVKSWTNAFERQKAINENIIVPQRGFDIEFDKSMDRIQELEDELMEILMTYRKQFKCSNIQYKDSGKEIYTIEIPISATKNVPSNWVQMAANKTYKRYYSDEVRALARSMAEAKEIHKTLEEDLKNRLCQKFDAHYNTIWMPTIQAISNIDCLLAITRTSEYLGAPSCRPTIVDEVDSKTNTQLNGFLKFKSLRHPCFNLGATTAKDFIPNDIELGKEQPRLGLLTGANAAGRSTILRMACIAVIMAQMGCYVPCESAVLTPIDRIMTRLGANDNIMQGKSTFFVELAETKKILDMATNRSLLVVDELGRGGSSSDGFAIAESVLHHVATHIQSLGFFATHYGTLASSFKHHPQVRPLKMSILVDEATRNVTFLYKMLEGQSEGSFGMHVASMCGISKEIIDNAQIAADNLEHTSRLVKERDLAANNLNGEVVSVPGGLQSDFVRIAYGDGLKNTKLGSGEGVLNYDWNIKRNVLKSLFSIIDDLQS
Test: UV cross-linking of [γ-32P]ATP, SDS-PAGE, phosphorimaging
Format: binding
Settings: labelled compound; no Mg2+, EDTA, pH 8, on ice; Msh2 site at 60 μM ATP, Msh6 site at 1 μM ATP

## Nc1ncnc2c1ncn2[C@@H]1O[C@H](COP(=O)(O)OP(=O)(O)OP(=O)(O)O)[C@@H](O)[C@H]1O [ATP]
  relative ATP binding: Msh2–Msh6(K988A) and Msh2–Msh6(K988R) mutant complexes had partial ATP binding defects at the Msh2 subunit
